Patent US20100093776A1, “Organic Compounds and Their Uses” (Novartis AG, priority 2006, published 2010)

Columns and labels:
Assay type in all cases: biochemical
[1] = biological target: T1, CDK1/cyclinB (Homo sapiens, UniProt P06493); experiment: CDK1/cyclinB IMAP fluorescence polarization kinase assay; conditions: 52 μM ATP, two hours at room temperature
T1 construct: purchased Millipore
Procedure: (§1) Kinase assays were performed on recombinant purified enzymes using the non-radioactive IMAP fluorescence polarization assay format.
(§2) Compound stocks were prepared and diluted in DMSO and were added to kinase reactions at a 1/100 dilution for a final concentration of 1% DMSO. The components were added together to final concentrations listed in the tables below and incubated for two hours at room temperature.
(§3) The reactions were stopped by addition of stop solution.
(§4) CDK9/CDK1/CDK7: final stop concentration is 1× Developer buffer (85% A/15% B), IMAP beads 1/400
(§5) The samples were allowed to incubate for one more hour at room temperature and then the fluorescence polarization was measured. The plate normalized millipolarization (mP) values were plotted against the log of compound concentration for each compound and IC50 values were calculated using the spotfire IC50 calculator and confirmed by visual analysis.

[2] = biological target: T2, CDK2/cyclinA (Homo sapiens, UniProt P24941); experiment: CDK2/cyclinA IMAP fluorescence polarization kinase assay; conditions: 4.68 μM ATP, two hours at room temperature
T2 construct: purchased Millipore
Procedure: as §1, §2, §3
CDK2: final stop concentration is 1× Developer buffer (100% A), IMAP beads 1/400
as §5

[3] = biological target: T3, CDK9/cyclinT1 (Homo sapiens, UniProt P50750); experiment: CDK9/cyclinT1 IMAP fluorescence polarization kinase assay; conditions: 6 μM ATP, two hours at room temperature
T3 construct: purchased Millipore
T3 sequence (P50750 whole entry): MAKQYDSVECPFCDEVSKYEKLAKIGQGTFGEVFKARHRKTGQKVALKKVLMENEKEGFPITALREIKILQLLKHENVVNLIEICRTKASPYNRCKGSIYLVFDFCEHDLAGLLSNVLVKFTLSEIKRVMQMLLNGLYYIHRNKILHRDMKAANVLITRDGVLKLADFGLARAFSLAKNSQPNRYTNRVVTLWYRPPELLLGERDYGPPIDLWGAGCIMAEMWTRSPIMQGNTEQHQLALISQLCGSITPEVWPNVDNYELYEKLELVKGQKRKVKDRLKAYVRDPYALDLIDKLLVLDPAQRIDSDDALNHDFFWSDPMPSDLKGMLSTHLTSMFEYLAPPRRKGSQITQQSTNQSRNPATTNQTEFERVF
T3 sequence (O60563 whole entry partner): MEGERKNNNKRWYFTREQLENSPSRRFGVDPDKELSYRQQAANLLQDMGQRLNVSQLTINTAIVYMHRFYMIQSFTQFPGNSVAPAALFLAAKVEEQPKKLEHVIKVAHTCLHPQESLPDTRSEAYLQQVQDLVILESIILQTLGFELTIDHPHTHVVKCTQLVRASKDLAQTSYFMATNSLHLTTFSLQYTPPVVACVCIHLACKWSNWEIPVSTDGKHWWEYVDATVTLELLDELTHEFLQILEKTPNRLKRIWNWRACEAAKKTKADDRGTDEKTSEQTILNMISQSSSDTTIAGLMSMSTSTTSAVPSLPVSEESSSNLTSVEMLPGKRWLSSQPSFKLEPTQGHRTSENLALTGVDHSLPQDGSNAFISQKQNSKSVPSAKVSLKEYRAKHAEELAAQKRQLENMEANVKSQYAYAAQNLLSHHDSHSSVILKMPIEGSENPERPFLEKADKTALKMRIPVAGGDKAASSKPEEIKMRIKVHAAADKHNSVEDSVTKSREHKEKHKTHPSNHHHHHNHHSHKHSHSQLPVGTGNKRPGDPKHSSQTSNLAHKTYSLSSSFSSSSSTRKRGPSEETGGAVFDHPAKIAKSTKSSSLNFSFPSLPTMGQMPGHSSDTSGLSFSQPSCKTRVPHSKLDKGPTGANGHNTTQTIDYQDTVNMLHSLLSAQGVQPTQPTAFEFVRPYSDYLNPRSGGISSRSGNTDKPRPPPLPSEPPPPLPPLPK
Procedure: as §1, §2, §3, §4, §5

T1 sequence (P06493 whole entry): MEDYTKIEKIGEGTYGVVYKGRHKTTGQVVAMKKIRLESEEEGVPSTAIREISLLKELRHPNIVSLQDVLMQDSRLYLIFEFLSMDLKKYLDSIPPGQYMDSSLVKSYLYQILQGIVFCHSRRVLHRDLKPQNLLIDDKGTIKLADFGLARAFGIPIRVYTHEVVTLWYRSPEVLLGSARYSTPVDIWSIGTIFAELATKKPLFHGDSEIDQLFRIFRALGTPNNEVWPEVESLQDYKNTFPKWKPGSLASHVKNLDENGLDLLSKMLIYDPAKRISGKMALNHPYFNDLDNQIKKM
T1 sequence (P14635 whole entry partner): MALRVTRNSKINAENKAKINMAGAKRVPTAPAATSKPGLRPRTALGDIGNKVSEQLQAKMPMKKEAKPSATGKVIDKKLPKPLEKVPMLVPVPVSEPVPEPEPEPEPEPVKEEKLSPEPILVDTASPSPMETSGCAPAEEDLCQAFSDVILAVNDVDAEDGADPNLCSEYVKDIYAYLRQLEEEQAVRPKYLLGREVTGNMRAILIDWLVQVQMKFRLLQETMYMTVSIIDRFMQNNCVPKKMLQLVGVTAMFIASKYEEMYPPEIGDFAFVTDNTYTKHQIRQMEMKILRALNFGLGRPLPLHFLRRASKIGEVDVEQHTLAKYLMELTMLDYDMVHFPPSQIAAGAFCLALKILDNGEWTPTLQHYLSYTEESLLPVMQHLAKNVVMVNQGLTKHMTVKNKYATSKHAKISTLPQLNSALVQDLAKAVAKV

SMILES	IC50 [1] [µM]	IC50 [2] [µM]	IC50 [3] [µM]
Cn1ccc2c(-c3ccnc(Nc4cccc(Cl)c4)n3)cccc21 [Compound 3, (3-Chloro-phenyl)-[4-(1-methyl-1H-indol-4-yl)-pyrimidin-2-yl]-amine]	5 to 15	< 5	< 5
CCn1ccc2c(-c3ccnc(Nc4cccc(Cl)c4)n3)cccc21 [Compound 4, (3-Chloro-phenyl)-[4-(1-ethyl-1H-indol-4-yl)-pyrimidin-2-yl]-amine]	< 5	5 to 15	< 5
CCOC(=O)Cn1ccc2c(-c3ccnc(Nc4cccc(Cl)c4)n3)cccc21 [Compound 5, Ethyl {4-[2-(3-chloro-phenylamino)-pyrimidin-4-yl]-indol-1-yl}acetate]	> 50	> 50	< 5
Clc1cccc(Nc2nccc(-c3cccc4c3ccn4Cc3ccccc3)n2)c1 [Compound 6, [4-(1-Benzyl-1H-indol-4-yl)-pyrimidin-2-yl]-(3-chloro-phenyl)-amine]	> 50	> 50	< 5
OCCn1ccc2c(-c3ccnc(Nc4cccc(Cl)c4)n3)cccc21 [Compound 7, 2-{4-[2-(3-chloroaniline)-pyrimidin-4-yl]-indol-1-yl}-ethanol]	5 to 15	< 5	< 5
OCCCn1ccc2c(-c3ccnc(Nc4cccc(Cl)c4)n3)cccc21 [Compound 8, 3-{4-[2-(3-Chloro-phenylamino)-pyrimidin-4-yl]-indol-1-yl}-propan-1-ol]	5 to 15	< 5	< 5
CN(C)CCn1ccc2c(-c3ccnc(Nc4cccc(Cl)c4)n3)cccc21 [Compound 10, (3-Chloro-phenyl)-{4-[1-(2-dimethylamino-ethyl)-1H-indol-4-yl]-pyrimidin-2-yl}-amine]	< 5	< 5	< 5
CN(C)CCCn1ccc2c(-c3ccnc(Nc4cccc(Cl)c4)n3)cccc21 [Compound 11, (3-Chloro-phenyl)-{4-[1-(3-dimethylamino-propyl)-1H-indol-4-yl]-pyrimidin-2-yl}-amine]	5 to 15	< 5	< 5
CNC(=O)Cn1ccc2c(-c3ccnc(Nc4cccc(Cl)c4)n3)cccc21 [Compound 12, 2-{4-[2-(3-Chloro-phenylamino)-pyrimidin-4-yl]-indol-1-yl}-N-methyl-acetamide]	< 5	< 5	< 5
CN(C)C(=O)Cn1ccc2c(-c3ccnc(Nc4cccc(Cl)c4)n3)cccc21 [Compound 14, 2-{4-[2-(3-Chloro-phenylamino)-pyrimidin-4-yl]-indol-1-yl}-N,N-dimethyl-acetamide]	5 to 15	< 5	< 5
CC(C)(C)NC(=O)Cn1ccc2c(-c3ccnc(Nc4cccc(Cl)c4)n3)cccc21 [Compound 15, N-tert-Butyl-2-{4-[2-(3-chloro-phenylamino)-pyrimidin-4-yl]-indol-1-yl}-acetamide]	< 5	< 5	< 5
CC(C)CNC(=O)Cn1ccc2c(-c3ccnc(Nc4cccc(Cl)c4)n3)cccc21 [Compound 16, 2-{4-[2-(3-Chloro-phenylamino)-pyrimidin-4-yl]-indol-1-yl}-N-isobutyl-acetamide]	> 50	> 50	< 5
O=C(Cn1ccc2c(-c3ccnc(Nc4cccc(Cl)c4)n3)cccc21)NCc1ccccc1 [Compound 17, N-Benzyl-2-{4-[2-(3-chloro-phenylamino)-pyrimidin-4-yl]-indol-1-yl}-acetamide]	> 50	> 50	> 50
O=C(Cn1ccc2c(-c3ccnc(Nc4cccc(Cl)c4)n3)cccc21)NCCO [Compound 18, 2-{4-[2-(3-Chloro-phenylamino)-pyrimidin-4-yl]-indol-1-yl}-N-(2-hydroxy-ethyl)-acetamide]	5 to 15	< 5	< 5
NCCNC(=O)Cn1ccc2c(-c3ccnc(Nc4cccc(Cl)c4)n3)cccc21 [Compound 19, N-(2-Amino-ethyl)-2-{4-[2-(3-chloro-phenylamino)-pyrimidin-4-yl]-indol-1-yl}-acetamide]	5 to 15	> 50	< 5
O=C(Cn1ccc2c(-c3ccnc(Nc4cccc(Cl)c4)n3)cccc21)N1CCNCC1 [Compound 20, 2-{4-[2-(3-Chloro-phenylamino)-pyrimidin-4-yl]-indol-1-yl}-1-piperazin-1-yl-ethanone]	> 50	> 50	< 5
NC1CCN(C(=O)Cn2ccc3c(-c4ccnc(Nc5cccc(Cl)c5)n4)cccc32)CC1 [Compound 21, 1-(4-Amino-piperidin-1-yl)-2-{4-[2-(3-chloro-phenylamino)-pyrimidin-4-yl]-indol-1-yl}-ethanone]	> 50	15 to 50	< 5
O=C(Cn1ccc2c(-c3ccnc(Nc4cccc(Cl)c4)n3)cccc21)NCC1CCCN1 (stereo not drawn) [Compound 22, 2-{4-[2-(3-Chloro-phenylamino)-pyrimidin-4-yl]-indol-1-yl}-N-pyrrolidin-2-ylmethyl-acetamide]	5 to 15	< 5	< 5
O=C(Cn1ccc2c(-c3ccnc(Nc4cccc(Cl)c4)n3)cccc21)NCCN1CCCC1 [Compound 23, 2-{4-[2-(3-Chloro-phenylamino)-pyrimidin-4-yl]-indol-1-yl}-N-(2-pyrrolidin-1-yl-ethyl)-acetamide]	15 to 50	> 50	< 5
O=C(O)Cn1ccc2c(-c3ccnc(Nc4cccc(Cl)c4)n3)cccc21 [Compound 24, {4-[2-(3-Chloro-phenylamino)-pyrimidin-4-yl]-indol-1-yl}-acetic acid]	15 to 50	5 to 15	< 5
Cc1cnc(Nc2cccc(Cl)c2)nc1-c1cccc2[nH]ccc12 [Compound 30, (3-Chloro-phenyl)-[4-(1H-indol-4-yl)-5-methyl-pyrimidin-2-yl]-amine]	15 to 50	15 to 50	< 5
COc1cnc(Nc2cccc(S(N)(=O)=O)c2)nc1-c1cccc2[nH]ccc12 [Compound 33, 3-[4-(1H-Indol-4-yl)-5-methoxy-pyrimidin-2-ylamino]-benzenesulfonamide]	< 5	< 5	< 5
NS(=O)(=O)c1cccc(Nc2ncc(F)c(-c3cccc4[nH]ccc34)n2)c1 [Compound 34, 3-[5-Fluoro-4-(1H-indol-4-yl)-pyrimidin-2-ylamino]-benzenesulfonamide]	< 5	< 5	< 5
